Assay results: paper PMC4686731, “Screening of Pharmacologically Active Small Molecule Compounds Identifies Antifungal Agents Against Candida Biofilms” (Frontiers in Microbiology, 2015)
Values after ≈ are worked out from the molar mass of the structure shown.

Experiments:
C. albicans SC5314 [1] = experiment: AST broth microdilution, high cell density planktonic mode; assay type: cell-based, Candida albicans; conditions: Candida albicans, SC5314, 24 h, read-out: Minimum inhibitory concentration (MIC)
Protocol: (§1) The in vitro susceptibility of well-characterized wild-type C. albicans strain SC5314, which was provided by Prof. N.A.R. Gow (University of Aberdeen, Aberdeen, UK) was tested against 1280 compounds from the Library of Pharmacologically Active Compounds (LOPAC^1280TM, Sigma–Aldrich, USA). The screen was performed with C. albicans SC5314, and hits were further confirmed with the type strains C. dubliniensis MYA 577, C. glabrata ATCC 2001, C. kusei ATCC 6258, C. palapsilosis ATCC 22019, and C. tropicalis ATCC13803.
(§2) To investigate the antifungal effects of the hit compounds, ASTs were conducted using broth microdilution assays with high cell densities of the planktonic mode, adhesion phase and biofilm mode against Candida strains (C. albicans, C. dubliniensis, C. glabrata, C. kusei, C. palapsilosis, and C. tropicalis). First, high density cell (1 × 10^7 cells/mL) suspensions were added to the RPMI medium containing each hit compound (10–1000 μM) in 96-well plates and incubated at 37°C for 24 h. Next, the 50% minimum inhibitory concentrations (MICs) of high-density Candida planktonic cultures were determined using the CellTiter-Glo luminescent cell viability kit, as described above. The antifungal effects of the hit compounds were also evaluated in the adhesion phase and the biofilm mode, in the same manner as the planktonic mode. Candida biofilms were produced as described previously ([Jin et al., 2004]). In brief, Candida cells were grown on SDA at 37°C for 18 h. A loopful of the yeast culture was then inoculated into yeast nitrogen base (YNB) (Difco, USA) medium supplemented with 50 mM glucose. After overnight broth culture in a rotary shaker at 75 rpm, the cells were washed twice with 20 mL of PBS (pH 7.2, 0.1 M). The yeast cells were re-suspended in YNB supplemented with 100 mM glucose and adjusted to an optical density of 0.38 (1 × 10^7 cells/mL) at 520 nm. This standardized cell suspension was used immediately to form biofilms in the wells of 96-well polystyrene culture plates (Iwaki, Tokyo, Japan). First, the cells were incubated for 90 min at 37°C in a shaker at 75 rpm to allow yeast adherence to the well surface (adhesion phase), before the medium was aspirated and each well was washed once with PBS to remove non-adherent cells. YNB containing 100 mM glucose was then pipetted into each well and the plate was incubated at 37°C in a shaker at 75 rpm for 24 h. Non-adherent cells were removed by pipetting and the biofilms were washed twice with PBS. Following this biofilm growth phase, microscopic examination of the cultures was performed to exclude contamination. These ASTs were repeated on three different occasions.

C. dubliniensis MYA 577 [2] = experiment: as above; assay type: cell-based; conditions: Candida dubliniensis, read-out: Minimum inhibitory concentration (MIC)
Protocol: as §1, §2

C. glabrata ATCC 2001 [3] = experiment: as above; assay type: cell-based; conditions: Nakaseomyces glabratus, read-out: Minimum inhibitory concentration (MIC)
Protocol: as §1, §2

C. kusei ATCC 6258 [4] = experiment: as above; assay type: cell-based; conditions: 24 h, read-out: Minimum inhibitory concentration (MIC)
Protocol: as §1, §2

[5] = tested on: C. palapsilosis ATCC 22019; experiment: as above; assay type: cell-based; conditions: 24 h, read-out: Minimum inhibitory concentration (MIC)
Protocol: as §1, §2

C. tropicalis ATCC13803 [6] = experiment: as above; assay type: cell-based; conditions: Candida tropicalis, read-out: Minimum inhibitory concentration (MIC)
Protocol: as §1, §2

C. albicans SC5314 [7] = experiment: AST, adhesion phase; assay type: cell-based; conditions: Candida albicans, SC5314, 1.5 h, read-out: Minimum inhibitory concentration (MIC)
Protocol: as §1, §2

C. dubliniensis MYA 577 [8] = experiment: AST, adhesion phase; assay type: cell-based; conditions: Candida dubliniensis, MYA577, 1.5 h, read-out: Minimum inhibitory concentration (MIC)
Protocol: as §1, §2

C. glabrata ATCC 2001 [9] = experiment: AST, adhesion phase; assay type: cell-based; conditions: Nakaseomyces glabratus, ATCC2001, 1.5 h, read-out: Minimum inhibitory concentration (MIC)
Protocol: as §1, §2

C. kusei ATCC 6258 [10] = experiment: AST, adhesion phase; assay type: cell-based; conditions: 1.5 h, read-out: Minimum inhibitory concentration (MIC)
Protocol: as §1, §2

[11] = tested on: C. palapsilosis ATCC 22019; experiment: AST, adhesion phase; assay type: cell-based; conditions: 1.5 h, read-out: Minimum inhibitory concentration (MIC)
Protocol: as §1, §2

C. tropicalis ATCC13803 [12] = experiment: AST, adhesion phase; assay type: cell-based; conditions: Candida tropicalis, ATCC13803, 1.5 h, read-out: Minimum inhibitory concentration (MIC)
Protocol: as §1, §2

Candida strains = experiment: AST, adhesion phase, all Candida strains; assay type: cell-based; conditions: all six strains
Protocol: as §1
as §2, with “First, the cells were incubated for 90 min at 37°C in a shaker at 75 rpm to allow yeast adherence to the well surface (adhesion phase), before the medium was aspirated and each well was washed once with PBS to remove non-adherent cells. YNB containing 100 mM glucose was then pipetted into each well and the plate was incubated at 37°C in a shaker at 75 rpm for 24 h. Non-adherent cells were removed by pipetting and the biofilms were washed twice with PBS. Following this biofilm growth phase, microscopic examination of the cultures was performed to exclude contamination. These ASTs were repeated on three different occasions.” left out

Candida biofilms = experiment: AST, biofilm mode, all Candida strains; assay type: cell-based; conditions: all six strains
Protocol: as §1, §2

[13] = 50% MIC, planktonic mode, 1 × 10^7 cells/mL, 24 h
[14] = MYA577, 50% MIC, planktonic mode, 1 × 10^7 cells/mL, 24 h
[15] = ATCC2001, 50% MIC, planktonic mode, 1 × 10^7 cells/mL, 24 h
[16] = 50% MIC, planktonic mode, 1 × 10^7 cells/mL
[17] = ATCC13803, 50% MIC, planktonic mode, 1 × 10^7 cells/mL, 24 h
[18] = adhesion phase (90 min adherence)

In the case of `Cc1ccc(S(=O)(=O)/C=C/C#N)cc1` [Bay11-7082], the MIC (C. albicans SC5314 [1]; [13]) is reported as 7.8 µM (≈ 1.62 µg/mL), the MIC (C. dubliniensis MYA 577 [2]; [14]) is reported as 3.9 µM (≈ 0.808 µg/mL) and the MIC (C. glabrata ATCC 2001 [3]; [15]) is reported as 7.8 µM (≈ 1.62 µg/mL). It also gave an MIC (C. kusei ATCC 6258 [4]; [16]) of 3.9 µM (≈ 0.808 µg/mL), an MIC [5, 16] of 3.9 µM (≈ 0.808 µg/mL) and an MIC (C. tropicalis ATCC13803 [6]; [17]) of 7.8 µM (≈ 1.62 µg/mL). For the same compound, the MIC (C. albicans SC5314 [7]; [18]) was 31.3 µM (≈ 6.49 µg/mL), the MIC (C. dubliniensis MYA 577 [8]; [18]) was 15.6 µM (≈ 3.23 µg/mL) and the MIC (C. glabrata ATCC 2001 [9]; [18]) was 31.3 µM (≈ 6.49 µg/mL). It also gave an MIC (C. kusei ATCC 6258 [10]; [18]) of 15.6 µM (≈ 3.23 µg/mL), an MIC [11, 18] of 15.6 µM (≈ 3.23 µg/mL) and an MIC (C. tropicalis ATCC13803 [12]; [18]) of 31.3 µM (≈ 6.49 µg/mL). For the same compound, the “concentration that inhibited the metabolic activity of Candida strains” value (Candida strains) was less than 31.3 µM, the “concentration that inhibited the metabolic activity of Candida biofilms” value (Candida biofilms; listed as BAY11-7082) was “below 500 μM” and the “concentration that inhibited the metabolic activity of Candida biofilms” value (Candida biofilms; listed as Bay 11-7082) was less than 62.5 µM.

In the case of `C[n+]1cc2c3c(ccc2c2ccc4cc5c(cc4c21)OCO5)OCO3` [Sanguinarine, Sanguinarine chloride hydrate], the MIC (C. albicans SC5314 [1]) is reported as less than 1 µM, the MIC (C. dubliniensis MYA 577 [2]; MYA577, 24 h) is reported as less than 1 µM and the MIC (C. glabrata ATCC 2001 [3]; ATCC2001, 24 h) is reported as less than 1 µM. For the same compound, the MIC (C. kusei ATCC 6258 [4]) was less than 1 µM, the MIC [5] was less than 1 µM and the MIC (C. tropicalis ATCC13803 [6]; ATCC13803, 24 h) was less than 1 µM. It also gave an MIC (C. albicans SC5314 [7]) of 15.6 µM, an MIC (C. dubliniensis MYA 577 [8]) of 15.6 µM and an MIC (C. glabrata ATCC 2001 [9]) of 15.6 µM. It also gave an MIC (C. kusei ATCC 6258 [10]) of 7.8 µM, an MIC [11] of 7.8 µM and an MIC (C. tropicalis ATCC13803 [12]) of 7.8 µM. The “concentration that inhibited the metabolic activity of Candida strains” value (Candida strains) was less than 15.6 µM, the “concentration that inhibited the metabolic activity of Candida biofilms” value (Candida biofilms; listed as Sanguinarine chloride hydrate) was less than 31.3 µM and the “concentration that inhibited the metabolic activity of Candida biofilms” value (Candida biofilms; listed as sanguinarine chloride hydrate) was “below 500 μM”.

With `CC(C)(C)c1ccc(S(=O)(=O)/C=C/C#N)cc1` [Bay11-7085] the MIC (C. albicans SC5314 [1]; [13]) was 3.9 µM (≈ 0.972 µg/mL), the MIC (C. dubliniensis MYA 577 [2]; [14]) was 3.9 µM (≈ 0.972 µg/mL) and the MIC (C. glabrata ATCC 2001 [3]; [15]) was 3.9 µM (≈ 0.972 µg/mL). It also gave an MIC (C. kusei ATCC 6258 [4]; [16]) of 3.9 µM (≈ 0.972 µg/mL), an MIC [5, 16] of 3.9 µM (≈ 0.972 µg/mL) and an MIC (C. tropicalis ATCC13803 [6]; [17]) of 3.9 µM (≈ 0.972 µg/mL). For the same compound, the MIC (C. albicans SC5314 [7]; [18]) was 31.3 µM (≈ 7.8 µg/mL), the MIC (C. dubliniensis MYA 577 [8]; [18]) was 15.6 µM (≈ 3.89 µg/mL) and the MIC (C. glabrata ATCC 2001 [9]; [18]) was 31.3 µM (≈ 7.8 µg/mL). It also gave an MIC (C. kusei ATCC 6258 [10]; [18]) of 15.6 µM (≈ 3.89 µg/mL), an MIC [11, 18] of 7.8 µM (≈ 1.94 µg/mL) and an MIC (C. tropicalis ATCC13803 [12]; [18]) of 31.3 µM (≈ 7.8 µg/mL). The “concentration that inhibited the metabolic activity of Candida strains” value (Candida strains) was less than 31.3 µM, the “concentration that inhibited the metabolic activity of Candida biofilms” value (Candida biofilms; listed as BAY11-7085) was “below 500 μM” and the “concentration that inhibited the metabolic activity of Candida biofilms” value (Candida biofilms; listed as Bay 11-7085) was less than 62.5 µM.

`Cc1c2ccncc2c(C)c2c1[nH]c1ccccc12` [Ellipticine] gave an MIC (C. albicans SC5314 [1]; [13]) of 7.8 µM (≈ 1.92 µg/mL), an MIC (C. dubliniensis MYA 577 [2]; [14]) of 3.9 µM (≈ 0.961 µg/mL) and an MIC (C. glabrata ATCC 2001 [3]; [15]) of 7.8 µM (≈ 1.92 µg/mL). It also gave an MIC (C. kusei ATCC 6258 [4]; [16]) of 7.8 µM (≈ 1.92 µg/mL), an MIC [5, 16] of 7.8 µM (≈ 1.92 µg/mL) and an MIC (C. tropicalis ATCC13803 [6]; [17]) of 15.6 µM (≈ 3.84 µg/mL). The MIC (C. albicans SC5314 [7]; [18]) was 62.5 µM (≈ 15.4 µg/mL), the MIC (C. dubliniensis MYA 577 [8]; [18]) was 125 µM (≈ 30.8 µg/mL) and the MIC (C. glabrata ATCC 2001 [9]; [18]) was 62.5 µM (≈ 15.4 µg/mL). For the same compound, the MIC (C. kusei ATCC 6258 [10]; [18]) was 250 µM (≈ 61.6 µg/mL), the MIC [11, 18] was 125 µM (≈ 30.8 µg/mL) and the MIC (C. tropicalis ATCC13803 [12]; [18]) was 250 µM (≈ 61.6 µg/mL). The “concentration that inhibited the metabolic activity of Candida biofilms” value (Candida biofilms) was less than 500 µM.
